Patent EP4656186A1, “NOVEL SOLID DISPERSION AND METHOD FOR PREPARING SAME” (ST Pharm Co., Ltd., priority 2023, dated 2024)

Tests used:
[1] = Solubility in fasted state simulated intestinal fluid (FaSSIF); assay type: physicochemical; details: thermodynamic from solid, After 4 hours at room temperature
Source text: Experimental Example 2: Confirmation of Solubility of Examples 1 to 5 in FaSSIF
The solubility of the solid dispersions prepared in Examples 1 to 5 in fasted state simulated intestinal fluid (FaSSIF) was confirmed, and the results are shown in Table 1.
Experimental Example 4: Confirmation of Solubility of Examples 6 to 7 in FaSSIF
The solubility of the solid dispersions prepared in Examples 6 to 7 in fasted state simulated intestinal fluid (FaSSIF) was confirmed in the same manner as in Experimental Example 2, and the results are shown in Table 2.

[2] = Pharmacokinetic test (in vivo), oral administration, plasma concentration by LC-MS/MS; set-up: species or system rats; details: 10 mg/kg
Method: Experimental Example 5: Confirmation of Bioavailability of Examples 1 and 6
Specifically, the drug was administered orally to rats, and blood was collected from the jugular vein at a predetermined time. The collected blood was centrifuged to separate plasma, pretreated, and then the concentration was analyzed by LC-MS/MS. Non-compartmental pharmacokinetic parameters were calculated using WinNonlin (Phoenix™, version 6.1) from the analyzed blood concentration-time data of the drug, and the results are shown in Table 3.

COCCOc1cc(F)c(N2CCN(c3nc4c(nnn4C)c(=O)[nH]3)CC2)c(F)c1 [Compound of Chemical Formula I]
solubility at 4 h ([1]; Table 1 (Experimental Example 2)): 1.89 µg/mL
solubility at 4 h ([1]; Table 2 (Experimental Example 4)): 1.66 µg/mL
AUClast Fold change ([2]; relative to the compound of Chemical Formula I): 1.00
AUC(0-t) ([2]; rat, plasma): 5460 ng·h/mL
Cmax ([2]; rat, plasma): 1020 ng/mL
Tmax ([2]; rat, plasma): 1 h
half-life ([2]; rat, plasma): 5.39 h
